Oligonucleotides are written 5' to 3', each unit as a sugar letter and its base; * is a phosphorothioate linkage, no mark a phosphodiester; rarer units and linkages stand in square brackets, end groups in braces. Plain capitals give the bases only. e = 2'-O-(2-methoxyethyl) (MOE); k = constrained ethyl (cEt); [5mC] = 5-methylcytosine; d = 2'-deoxy (DNA)
How the values were obtained:
AR mRNA [1] = experiment: Antisense inhibition of human AR in HuVEC cells, single concentration (electroporation, qRT-PCR RTS3559); assay type: cell-based; details: 250 nM ASO, ~24 h, Table 7
How it was run: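 AR mRNA levels were measured with human primer-probe set RTS3559 and adjusted for total RNA (RIBOGREEN). Cells were HuVEC, with each antisense oligonucleotide delivered by electroporation at one concentration.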

AR mRNA [2] = experiment: Dose-dependent antisense inhibition of human AR in HuVEC cells (electroporation, qRT-PCR RTS3559, IC50); assay type: cell-based; details: HuVEC, ~16 h, Table 8
How it was run: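 HuVEC cells dosed with antisense oligonucleotides by electroporation and treated approximately 16 hours. AR mRNA quantified by real-time qPCR with primer probe set RTS3559 and normalised to total RNA by RIBOGREEN; IC50 from dose-response.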

AR mRNA [3] = experiment: AR mRNA levels in LMR20 cells (with/without DHT or R1881); assay type: cell-based, human; details: LMR20 cells; for AR mRNA levels (% baseline value) after treatment with DHT: DHT 10 nM 72 hrs; for AR mRNA levels (% baseline value) after treatment with R1881: R1881 10 nM 72 hrs; for AR mRNA levels (% baseline value) of cells without AR agonist treatment: no AR agonist
Procedure: (§1) LMR20 cells were plated at 1,500 cells per well in phenol red-free medium with CSS.

[4] = tested on: prostate-specific antigen (PSA) mRNA; experiment: PSA mRNA levels in LMR20 cells; assay type: cell-based, human; details: LMR20 cells; for PSA mRNA levels (% baseline value) after treatment with DHT: DHT 10 nM 72 hrs; for PSA mRNA levels (% baseline value) after treatment with R1881: R1881 10 nM 72 hrs; for PSA mRNA levels (% baseline value) of cells without AR agonist treatment: no AR agonist
Procedure: LMR20 cells were plated at 1,500 cells per well in phenol red-free medium with CSS. […] Results are presented in Tables 43-45 as mRNA levels expressed as a percentage of the baseline values. mRNA levels may be lowered or increased after treatment.

TMPRSS2 mRNA = TMPRSS2 mRNA levels in LMR20 cells; assay type: cell-based, human; details: LMR20 cells; for TMPRSS2 mRNA levels (% baseline value) after treatment with DHT: DHT 10 nM 72 hrs; for TMPRSS2 mRNA levels (% baseline value) after treatment with R1881: R1881 10 nM 72 hrs; for TMPRSS2 mRNA levels (% baseline value) of cells without AR agonist treatment: no AR agonist
Procedure: as §1

AR mRNA [5] = experiment: AR mRNA in LnCaP cells by free uptake (hAR_LTS00943); assay type: cell-based, human; details: 24 hrs
Procedure: Cells were plated at a concentration of 4,000 cells/well in 96-well plates. ISIS oligonucleotides, specified in Table 68, were added individually at 0.02 μM, 0.10 μM, 0.50 μM, 2.50 μM, or 10.00 μM. After an incubation period of 24 hrs, mRNA levels were measured using primer probe set hAR_LTS00943.

AR mRNA [6] = experiment: AR mRNA in liver, heart, skeletal muscle, kidney, prostate of cynomolgus monkeys; assay type: in vivo; details: cynomolgus monkey, 40 mg/kg subcutaneously
Procedure: Cynomolgus monkeys were treated with ISIS antisense oligonucleotides selected from studies described above. Antisense oligonucleotide efficacy and tolerability were evaluated. The human antisense oligonucleotides tested are cross-reactive with the rhesus genomic sequence (GENBANK Accession No. NW_001218131.1 truncated from nucleotides 134001 to 308000 and designated herein as SEQ ID NO: 189). The target start site and target region of each oligonucleotide to SEQ ID NO: 189, as well as the details of their chemistry and sequence, is presented in Table 133.
RNA was extracted from liver, heart, skeletal muscle, kidney, and prostate tissues for real-time PCR analysis of AR using primer probe set RTS3559. The results were normalized to RIBOGREEN®. Results are presented as percent inhibition of AR mRNA, relative to PBS control.

[7] = cynomolgus monkey, in vivo, sc, 40 mg/kg
Procedure: (§2) Prior to the study, the monkeys were kept in quarantine for a 30-day period, during which the animals were observed daily for general health. The monkeys were 2-4 years old and weighed between 2 and 4 kg. Thirteen groups of four randomly assigned male cynomolgus monkeys each were injected subcutaneously with ISIS oligonucleotide or PBS. PBS solution or ISIS oligonucleotides, at a dose of 40 mg/kg, were administered with a loading regimen consisting of four doses on the first week of the study (days 1, 3, 5, and 7), followed by a maintenance regimen consisting of once weekly administration starting on Day 14 (weeks 2 to 6). Subcutaneous injections were performed in clock-wise rotations at 4 sites on the back; one site per dose. The injection sites were delineated by tattoo, while sedated using ketamine, and were separated by a minimum of 3 cm.
To evaluate the effect of ISIS oligonucleotides on the overall health of the animals, body and organ weights were measured.

[8] = cynomolgus monkey, in vivo, sc, 40 mg/kg; remark: listed apart in the source
Procedure: as §2
To evaluate the effect of ISIS oligonucleotides on hepatic function, the monkeys were fasted overnight. Approximately, 1.5 mL of blood samples were collected on day 44 from all the study groups. Blood was collected in tubes without anticoagulant for serum separation. The tubes were kept at room temperature for a minimum of 90 min and then centrifuged at 3,000 rpm for 10 min. Levels of various liver function markers were measured using a Toshiba 120FR NEO chemistry analyzer (Toshiba Co., Japan).

[9] = cynomolgus monkey, in vivo, sc, 40 mg/kg; remark: listed apart in the source
Procedure: as §2
To evaluate any effect of ISIS oligonucleotides in cynomolgus monkeys on hematologic parameters, blood samples of approximately 0.5 mL of blood was collected day 44 from each of the available study animals in tubes containing K2-EDTA. Samples were analyzed for red blood cell (RBC) count, white blood cells (WBC) count, platelet count, hemoglobin content and hematocrit, using an ADVIA2120i hematology analyzer (SIEMENS, USA).

[10] = cynomolgus monkey, in vivo, sc, 40 mg/kg; remark: listed apart in the source
Procedure: as §2
To evaluate the effect of ISIS oligonucleotides on kidney function, the monkeys were fasted overnight. Approximately, 1.5 mL of blood samples were collected from all the study groups on day 44. Blood was collected in tubes without anticoagulant for serum separation. The tubes were kept at room temperature for a minimum of 90 min and then centrifuged at 3,000 rpm for 10 min. Levels of BUN and creatinine were measured using a Toshiba 120FR NEO chemistry analyzer (Toshiba Co., Japan).

[11] = cynomolgus monkey, in vivo, sc, 40 mg/kg; remark: listed apart in the source

## 560131 (antisense kT*kT*kG*dA*dT*dT*dT*dA*dA*dT*dG*dG*kT*kT*kG*e[5mC]) [compound 560131]
AR mRNA [1]
  % inhibition: 74%
AR mRNA [2]; 31.25 nM
  percent inhibition of AR: 16%
AR mRNA [2]; 62.5 nM
  percent inhibition of AR: 48%
AR mRNA [2]; 125.0 nM
  percent inhibition of AR: 65%
AR mRNA [2]; 500.0 nM
  percent inhibition of AR: 89%
AR mRNA [2]; 1000.0 nM
  percent inhibition of AR: 97%
AR mRNA [2]
  IC50: 90 nM
AR mRNA [3]; ASO 0.04 μM
  AR mRNA levels (% baseline value) after treatment with DHT: 89 % baseline value
  AR mRNA levels (% baseline value) after treatment with R1881: 87 % baseline value
  AR mRNA levels (% baseline value) of cells without AR agonist treatment: 107 % baseline value
AR mRNA [3]; ASO 0.20 μM
  AR mRNA levels (% baseline value) after treatment with DHT: 55 % baseline value
  AR mRNA levels (% baseline value) after treatment with R1881: 65 % baseline value
  AR mRNA levels (% baseline value) of cells without AR agonist treatment: 74 % baseline value
AR mRNA [3]; ASO 1.0 μM
  AR mRNA levels (% baseline value) after treatment with DHT: 25 % baseline value
  AR mRNA levels (% baseline value) after treatment with R1881: 30 % baseline value
  AR mRNA levels (% baseline value) of cells without AR agonist treatment: 29 % baseline value
AR mRNA [3]; ASO 5.0 μM
  AR mRNA levels (% baseline value) after treatment with DHT: 20 % baseline value
  AR mRNA levels (% baseline value) after treatment with R1881: 26 % baseline value
  AR mRNA levels (% baseline value) of cells without AR agonist treatment: 17 % baseline value
[4]; ASO 0.04 μM
  PSA mRNA levels (% baseline value) after treatment with DHT: 74 % baseline value
  PSA mRNA levels (% baseline value) after treatment with R1881: 92 % baseline value
  PSA mRNA levels (% baseline value) of cells without AR agonist treatment: 113 % baseline value
[4]; ASO 0.20 μM
  PSA mRNA levels (% baseline value) after treatment with DHT: 61 % baseline value
  PSA mRNA levels (% baseline value) after treatment with R1881: 77 % baseline value
  PSA mRNA levels (% baseline value) of cells without AR agonist treatment: 83 % baseline value
[4]; ASO 1.0 μM
  PSA mRNA levels (% baseline value) after treatment with DHT: 35 % baseline value
  PSA mRNA levels (% baseline value) after treatment with R1881: 44 % baseline value
  PSA mRNA levels (% baseline value) of cells without AR agonist treatment: 75 % baseline value
[4]; ASO 5.0 μM
  PSA mRNA levels (% baseline value) after treatment with DHT: 35 % baseline value
  PSA mRNA levels (% baseline value) after treatment with R1881: 35 % baseline value
  PSA mRNA levels (% baseline value) of cells without AR agonist treatment: 71 % baseline value
TMPRSS2 mRNA; ASO 0.04 μM
  TMPRSS2 mRNA levels (% baseline value) after treatment with DHT: 112 % baseline value
  TMPRSS2 mRNA levels (% baseline value) after treatment with R1881: 132 % baseline value
  TMPRSS2 mRNA levels (% baseline value) of cells without AR agonist treatment: 92 % baseline value
TMPRSS2 mRNA; ASO 0.20 μM
  TMPRSS2 mRNA levels (% baseline value) after treatment with DHT: 108 % baseline value
  TMPRSS2 mRNA levels (% baseline value) after treatment with R1881: 117 % baseline value
  TMPRSS2 mRNA levels (% baseline value) of cells without AR agonist treatment: 67 % baseline value
TMPRSS2 mRNA; ASO 1.0 μM
  TMPRSS2 mRNA levels (% baseline value) after treatment with DHT: 93 % baseline value
  TMPRSS2 mRNA levels (% baseline value) after treatment with R1881: 88 % baseline value
  TMPRSS2 mRNA levels (% baseline value) of cells without AR agonist treatment: 52 % baseline value
TMPRSS2 mRNA; ASO 5.0 μM
  TMPRSS2 mRNA levels (% baseline value) after treatment with DHT: 71 % baseline value
  TMPRSS2 mRNA levels (% baseline value) after treatment with R1881: 76 % baseline value
  TMPRSS2 mRNA levels (% baseline value) of cells without AR agonist treatment: 45 % baseline value
AR mRNA [5]; 0.02 μM
  Percent inhibition of AR mRNA: 0%
AR mRNA [5]; 0.1 μM
  Percent inhibition of AR mRNA: 0%
AR mRNA [5]; 0.5 μM
  Percent inhibition of AR mRNA: 13%
AR mRNA [5]; 10 μM
  Percent inhibition of AR mRNA: 57%
AR mRNA [6]; weeks 1 to 6, Heart
  Percent Inhibition of AR mRNA relative to the PBS control, Heart: 32%
AR mRNA [6]; weeks 1 to 6, Kidney
  Percent Inhibition of AR mRNA relative to the PBS control, Kidney: 19%
AR mRNA [6]; weeks 1 to 6, Liver
  Percent Inhibition of AR mRNA relative to the PBS control, Liver: 65%
AR mRNA [6]; weeks 1 to 6, Prostate
  Percent Inhibition of AR mRNA relative to the PBS control, Prostate: 27%
AR mRNA [6]; weeks 1 to 6, Skeletal Muscle
  Percent Inhibition of AR mRNA relative to the PBS control, Skeletal Muscle: 30%

## TGATTTAATGGTTGCA [ISIS 569213] (cEt/MOE gapmer chemistry, further chemistry not given here)
[7]
  Body Wt: 2.4 kg
  Heart weight: 8.3 g
  Kidney weight: 16 g
  Liver weight: 69 g
  Mesenteric lymph nodes weight: 2.4 g
  Spleen weight: 5.3 g
[8]
  ALT: 47 IU/L
  AST: 80 IU/L
  Albumin: 3.7 g/dL
[9]
  HCT: 42%
  Hemoglobin: 12.5 g/dL
  Platelets: 426000 µL
  RBC: 5.6e+06 µL
  WBC: 12900 µL
[10]
  Plasma BUN: 29.4 mg/dL
  Plasma Creatinine: 0.91 mg/dL
[11]
  C3 (% of baseline): 60 % of baseline
  CRP: 2.8 mg/dL
